Common to all, as to assay type: in vivo
One assay deals with Cyperus iria. The assay can be described thus: Greenhouse pot test, post emergence treatment, herbicidal activity against CYPIR. To be noted: scale 0 to 100.
Assay [1] concerns Erigeron Canadensis, Conyza canadensis. The assay can be described thus: Greenhouse pot test, post emergence treatment, herbicidal activity against ERICA. The note with it: L-Glufosinate 75 g ai/ha, scale 0 to 100.
In another assay the test system is Avena fatua. In words: Greenhouse pot test, post emergence treatment, herbicidal activity against AVEFA. The note with it: scale 0 to 100. The source says: (§1) Synergism can be described as an interaction where the combined effect of two or more compounds is greater than the sum of the individual effects of each of the compounds. The presence of a synergistic effect in terms of percent control, between two mixing partners (X and Y) can be calculated using the Colby equation (Colby, S. R., 1967, Calculating Synergistic and Antagonistic Responses in Herbicide Combinations, Weeds, 15, 21-22):
(§2) When the observed combined control effect is greater than the expected (calculated) combined control effect (E), then the combined effect is synergistic.
(§3) However, the weed control afforded by the compounds, mixtures or compositions is not limited to these species. The analysis of synergism or antagonism between the mixtures or compositions was determined using Colby's equation.
(§4) The culture containers used were plastic flowerpots containing loamy sand with approximately 3.0% of humus as the substrate. The seeds of the test plants were sown separately for each species and/or resistant biotype. For the pre-emergence treatment, the active ingredients, which had been suspended or emulsified in water, were applied directly after sowing by means of finely distributing nozzles. The containers were irrigated gently to promote germination and growth and subsequently covered with transparent plastic hoods until the plants had rooted. This cover caused uniform germination of the test plants, unless this had been impaired by the active ingredients. For the post-emergence treatment, the test plants were first grown to a height of 3 to 15 cm, depending on the plant habit, and only then treated with the active ingredients which had been suspended or emulsified in water. For this purpose, the test plants were either sown directly and grown in the same containers, or they were first grown separately as seedlings and transplanted into the test containers a few days prior to treatment. Depending on the species, the plants were kept at 10-25 ° C.or 20-35° C., respectively. The test period extended to 20 days after treatment. During this time, the plants were tended, and their response to the individual treatments was evaluated. The evaluation was carried out by using a scale from 0 to 100. 100 means no emergence of the plants or complete destruction of at least the above-ground parts, and 0 means no damage, or normal course of growth. Data shown are the mean of two replications. […]

The next assay deals with Echinochloa crus-galli. In words: Greenhouse pot test, post emergence treatment, herbicidal activity against ECHCG. To be noted: scale 0 to 100.
From the text: as §1, §2, §3
as §4, with “Depending on the species, the plants were kept at 10-25 ° C.or 20-35° C., respectively. The test period extended to 20 days after treatment.” left out, “evaluated.” for “evaluated. The evaluation was carried out by using a scale from 0 to 100. 100 means no emergence of the plants or complete destruction of at least the above-ground parts, and 0 means no damage, or normal course of growth. Data shown are the mean of two replications.”

A further assay relates to Abutilon theophrasti. In words: Greenhouse pot test, post emergence treatment, herbicidal activity against ABUTH. The note with it: scale 0 to 100.
From the text: as §1, §2, §3
The culture containers used were plastic flowerpots containing loamy sand with approximately 3.0% of humus as the substrate. The seeds of the test plants were sown separately for each species and/or resistant biotype. For the pre-emergence treatment, the active ingredients, which had been suspended or emulsified in water, were applied directly after sowing by means of finely distributing nozzles. The containers were irrigated gently to promote germination and growth and subsequently covered with transparent plastic hoods until the plants had rooted. This cover caused uniform germination of the test plants, unless this had been impaired by the active ingredients. For the post-emergence treatment, the test plants were first grown to a height of 3 to 15 cm, depending on the plant habit, and only then treated with the active ingredients which had been suspended or emulsified in water. For this purpose, the test plants were either sown directly and grown in the same containers, or they were first grown separately as seedlings and transplanted into the test containers a few days prior to treatment. Depending on the species, the plants were kept at 10-25 ° C.or 20-35° C., respectively. The test period extended to 20 days after treatment. During this time, the plants were tended, and their response to the individual treatments was evaluated. The evaluation was carried out by using a scale from 0 to 100. 100 means no emergence of the plants or complete destruction of at least the above-ground parts, and 0 means no damage, or normal course of growth. Data shown are the mean of two replications.
• L-Glufosinate: 5% EC formulation • Saflufenacil: 342 g/l SC formulation • Compound II-89: 5% EC formulation (Compound II-89: ethyl [3-[2-chloro-4-fluoro-5-(1-methyl-6-trifluoromethyl-2,4-dioxo-1,2,3,4-tetrahydropyrimidin-3-yl)phenoxy]-2-pyridyloxy]acetate) • Trifludimoxazin: 500 g/l SC formulation • Pyroxasulfone: 85% WG formulation • Pethoxamid: 5% EC formulation • Sulfentrazone: 480 g/l SC formulation Weeds in the Study: […]

Results on four molecules are retold here after US12262716B2, “Herbicidal mixtures comprising L-glufosinate and their use in soybean cultures” (BASF SE, priority 2017, dated 2025).

As for `CCOC(=O)COc1ncccc1Oc1cc(-n2c(=O)cc(C(F)(F)F)n(C)c2=O)c(F)cc1Cl` [Compound II-89, ethyl [3-[2-chloro-4-fluoro-5-(1-methyl-6-trifluoromethyl-2,4-dioxo-1,2,3,4-tetrahydropyrimidin-3-yl)phenoxy]-2-pyridyloxy]acetate], the “Herbicidal activity against CYPIR, Found” value with Cyperus iria (Compound II-89 0.25 g ai/ha) came out at 0.
As to `CP(=O)(O)CC[C@H](N)C(=O)O` [L-Glufosinate, (2S)-2-amino-4-[hydroxy(methyl)phosphinoyl]butyric acid], the “Herbicidal activity against ERICA, Found” value in assay [1] is 90. Further, the “Herbicidal activity against AVEFA, Found” value with Avena fatua (L-Glufosinate 75 g ai/ha) and with Avena fatua (L-Glufosinate 150 g ai/ha) was 0 in each case. In the assay on Cyperus iria (L-Glufosinate 200 g ai/ha), the “Herbicidal activity against CYPIR, Found” value turned out to be 0. The “Herbicidal activity against ECHCG, Found” value in the assay on Echinochloa crus-galli (L-Glufosinate 200 g ai/ha) is recorded as 0; with Echinochloa crus-galli (L-Glufosinate 400 g ai/ha) it was 65. Also, the “Herbicidal activity against ABUTH, Found” value in the assay with Abutilon theophrasti (L-Glufosinate 75 g ai/ha) was found to be 0; in the assay on Abutilon theophrasti (L-Glufosinate 150 g ai/ha), 55; in the assay with Abutilon theophrasti (L-Glufosinate 200 g ai/ha), 65.
On to `CCOCCN(C(=O)CCl)C(=C(C)C)c1ccccc1` [Pethoxamid, pethoxamid], for which the “Herbicidal activity against AVEFA, Found” value in the assay with Avena fatua (Pethoxamid 50 g ai/ha) and with Avena fatua (Pethoxamid 100 g ai/ha) was 0 throughout. Moreover, the “Herbicidal activity against ABUTH, Found” value in the assay with Abutilon theophrasti (Pethoxamid 50 g ai/ha) and in the assay with Abutilon theophrasti (Pethoxamid 100 g ai/ha) was 0 each time.
On to `C#CCN1C(=O)C(F)(F)Oc2cc(F)c(-n3c(=O)n(C)c(=S)n(C)c3=O)cc21` [Trifludimoxazin, trifludimoxazin], for which, in the assay with Echinochloa crus-galli (Trifludimoxazin 0.25 g ai/ha), the “Herbicidal activity against ECHCG, Found” value is listed as 10.
